Data set [1] deals with T1, p60^c-src (Src) (Homo sapiens, UniProt P12931).
T1 construct: purchased Upstate Biotechnologies
Put plainly: Src kinase test procedure (Elisa format). In kind it is biochemical. As to the method: Inhibitors of p60^c-src (partially purified preparation purchased from Upstate Biotechnologies) tyrosine kinase activity are analyzed in an Elisa format. […] HRP-conjugated anti-phosphotyrosine is used to detect phosphorylated peptide via a color reaction. Conditions recommended by the manufacturer are employed.
The reaction mixture with the phosphorylated peptide is then transferred to a streptavidin-coated microtiter plate (provided in the kit) and allowed to bind for 20 minutes. Unbound peptide and reaction mixture is decanted and the plate is washed with PBS six times. Horseradish peroxidase-conjugated phosphotyrosine antibody supplied in the kit is incubated with the plate for one hour, then decanted. The plate is again washed with PBS six times.

The subject of data set [2] is HT-29 cells. As to the kind of experiment: Cell proliferation test procedure, HT-29 cells. In kind it is cell-based. Conditions: Homo sapiens, read-out: HT-29 prolif IC50. As to the method: HT-29 cells: Compound effectiveness at inhibiting cell proliferation on plastic is performed in a 96-well format by plating 5000 cells per well in appropriate medium on day one, followed by compound addition on day 2 in serial two-fold dilutions. On day five, compound is washed away and medium containing MTS reagent (Promega) is added. Relative cell number is determined by reading the absorbance at 490 nm of a dye produced by an NAD-dependent cellular enzymatic reaction.

The target of data set [3] is T2, Rat2 fibroblasts transformed with v-Src/Hu c-Src fusion gene (Homo sapiens, UniProt P12931, cells depend on it, form not given).
T2 construct: fused on or other part: The v-Src frame of Rous sarcoma virus: everything outside the catalytic domain, namely the N-terminal unique/SH3/SH2 part; Candidates are Prague C (P00526), then Schmidt-Ruppin A (P00524)
As to the kind of experiment: Anchorage independent Src-transformed fibroblast proliferation test procedure. Particulars: rat2 fibroblasts transformed with v-src/hu c-src fusion gene; read-out: Src TF prolif IC50. In kind it is cell-based, rat. From the text:
Anchorage Independent Src-transformed Fibroblast Proliferation Test Procedure: Rat2 fibroblasts stably transformed with a plasmid containing CMV promotor controlled v-Src/Hu c-Src fusion gene in which the catalytic domain of human c-Src is inserted in place of the v-Src catalytic domain in the v-Src gene are used for the measurement of src dependent suspension growth.

This is an account of results in patent US7105531B2, “Tricyclic protein kinase inhibitors” (WYETH, priority 1999, dated 2006).

T1 sequence (P12931 whole entry, species assumed): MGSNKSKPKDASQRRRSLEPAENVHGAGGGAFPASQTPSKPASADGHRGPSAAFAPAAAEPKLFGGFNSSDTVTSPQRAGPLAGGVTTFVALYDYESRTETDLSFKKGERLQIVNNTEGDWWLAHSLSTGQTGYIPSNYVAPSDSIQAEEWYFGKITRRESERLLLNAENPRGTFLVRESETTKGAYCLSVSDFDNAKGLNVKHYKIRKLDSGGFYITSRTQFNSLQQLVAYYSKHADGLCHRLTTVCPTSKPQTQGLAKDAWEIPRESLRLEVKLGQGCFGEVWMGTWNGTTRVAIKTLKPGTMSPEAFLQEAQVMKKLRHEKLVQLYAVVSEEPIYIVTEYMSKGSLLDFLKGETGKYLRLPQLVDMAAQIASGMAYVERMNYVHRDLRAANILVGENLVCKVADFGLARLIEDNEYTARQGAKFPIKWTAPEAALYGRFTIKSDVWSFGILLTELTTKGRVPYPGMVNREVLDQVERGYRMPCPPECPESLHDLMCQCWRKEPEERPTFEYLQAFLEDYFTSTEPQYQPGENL
T2 sequence (P12931 whole entry, change not shown, the tested form may be a part): as the sequence (P12931 whole entry, species assumed) above

As to `COc1cc(Nc2c(C#N)cnc3c2sc2ccc([N+](=O)[O-])cc23)c(C)cc1Cl` [Example 75], in data set [1] (dose 10 μM), the “Src % Inh” value was 0%.
For the molecule `COc1cc(Nc2c(C#N)cnc3cc4cc(OCCN5CCN(C)CC5)c(OC)cc4cc23)c(C)cc1Cl` [Example 133, 4-(4-chloro-5-methoxy-2-methylanilino)-7-methoxy-8-[2-(4-methyl 1-piperazinyl)ethoxy]benzo[g]quinoline-3-carbonitrile], the half-inhibitory concentration (IC50) (as a rule, the concentration at which inhibition is half-maximal) in data set [2] is 8.6 µM.
On to `COc1cc(Nc2c(C#N)cnc3cc4cc(OCCN5CCN(C)CC5)c(OC)cc4cc23)c(Cl)cc1C` [Example 203], for which it took 0.0042 µM to reach half-maximal inhibition in data set [1] (IC50). Further, the GI50 in data set [3] was 0.071 µM.
With `COc1cc(Nc2c(C#N)cnc3cc4cc(OCCN5CCOCC5)c(OC)cc4cc23)c(Cl)cc1C` [Example 216, 4-(2-Chloro-5-methoxy-4-methylphenylamino)-7-methoxy-8-(2-morpholin-4-yl-ethoxy)benzo[g]quinoline-3-carbonitrile], the melting point (commonly the temperature of the solid-liquid transition) lay in the range of 220 to 222 °C. Also, the IC50 in data set [2] was 9.95 µM.
